Assay: Dynamic moisture-sorption (DMS)
Type: physicochemical
Details: for hygroscopicity by DMS: isotherm 25° C.
Description: Dynamic moisture-sorption (DMS) studies were conducted using a dynamic moisture-sorption analyzer, VTI Corporation, SGA-100, equipment #0228. Samples were prepared for DMS analysis by placing 5 mg to 20 mg of a sample in a tared sample holder. The sample was placed on the hang-down wire of the VTI balance. A drying step was run, typically at 40° C. and 0.5-1% RH for 1-2 h. The isotherm temperature is 25° C. Defined % RH holds typically ranged from 10% RH to 90% RH or 95% RH, with intervals of 10 to 20% RH. A % weight change smaller than 0.010% over a specified number of minutes (typically 10-20), or up to 2 h, whichever occurs first, is required before continuing to the next % RH hold. The water content of the sample equilibrated as described above was determined at each % RH hold.

[1] = out to and including the 90% RH hold at 25° C.

Structure (SMILES)	hygroscopicity by DMS	hygroscopicity by DMS (listed as Compound 1 Hydrochloride Salt Hemihydrate, Form III)	water adsorbed in DMS [1]	DMS weight gain at 90% RH [1]	DMS weight gain at 90% RH (out to and including the 90% RH hold at 25° C., Form I)
C[C@H]1CNCCc2ccc(Cl)cc21.C[C@H]1CNCCc2ccc(Cl)cc21.Cl.Cl.O	substantially non-hygroscopic	FIG. 4: non-hygroscopic	less than 0.5 wt %	–	–
C[C@H]1CNCCc2ccc(Cl)cc21.C[C@H]1CNCCc2ccc(Cl)cc21.O=S(=O)(O)c1cccc2c(S(=O)(=O)O)cccc12 [Compound 1 heminapadisilate salt]	non-hygroscopic	–	–	about 0.68%	FIG. 31: ~0.68% weight gain at about 90% RH
